Columns and labels:
MDA-MB-231 cells = test: MDA-MB-231 proliferation assay; format: cell-based; details: Homo sapiens, MDA-MB-231, 72 h, YO-PRO-1 Iodide readout
Source text: (§1) MDA-MB-231 and CAL-51 Proliferation Assay
(§2) Cells (MDA-MB-231 (American Type Culture Collection (ATCC), #HTB-26) or CAL-51 (Deutsche Sammlung von Mikroorganismen und Zellkulturen (DSMZ), #ACC302) as applicable) were cultivated in DMEM High Glucose (4.5 g/L) with L-Glutamine (BioConcept, cat. no. 1-26F03-I) supplemented with 1% Na-pyruvate (Sigma, cat. no. S8636), 1% Penicillin-Streptomycin (BioConcept, cat. no. 4-01F00H), and 10% FBS (Sigma, cat. no. F9665) using standard techniques. Cells were seeded in black, clear-bottom 384 well plates for tissue culture (Greiner Bio-One, cat. no. 781091) at a density of 750 cells per well in 20 μL medium and the plates were incubated overnight at 37° C. with 5% CO2 prior to treatment. Experimental compounds were serially diluted in DMSO to 200× the desired final concentrations. The solutions were then diluted 1:40 with culture medium and 5 μL aliquots were mixed into the wells containing the cells. The final concentration of DMSO was 0.5%. The plates were incubated for 72 hours and cell numbers were then measured using YO-PRO™-1 Iodide (ThermoFisher Scientific, cat. no. Y3603) essentially as recommended by the manufacturer. Briefly, a 12.5 μM solution of YO-PRO™_1 Iodide in 5× YO—PRO buffer (100 mM Na-citrate, 130 mM NaCl, pH 4) was combined with an equal volume of lysis buffer (0.6% NP-40, 30 mM EDTA, 30 mM EGTA, 0.33× YO—PRO buffer) and 12.5 μL of the mixture were dispensed into each well. The plates were incubated at room temperature in the dark for 30 minutes. Fluorescence intensity signals were then measured on a Synergy 4 reader (BioTek) using 485/20 nm and 530/25 nm filters for the excitation and emission, respectively. Relative proliferation values were calculated by normalizing the raw data using DMSO-treated cells (100% proliferation) and the signals obtained from cells that were evaluated at the time of compound addition (0% proliferation). The concentration-response data were fitted to a sigmoidal 4-parameter logistic model with the maximum constrained to 100%. GI50 values were calculated from the curves as the compound concentrations reducing proliferation to 50%.

CAL-51 cells = test: CAL-51 proliferation assay; format: cell-based; details: Homo sapiens, CAL-51, 72 h, YO-PRO-1 Iodide readout
Source text: as §1, §2

recombinant human CLK3 = target: T1, recombinant human CLK3 (Homo sapiens, UniProt P49761); test: CLK3 kinase assay (LANCE Ultra); format: biochemical; details: CLK3 0.5 nM, ATP 300 μM, 3 hours at 30° C.
T1 construct: purchased Thermo Fisher Scientific PV3826
T1 sequence (P49761 whole entry): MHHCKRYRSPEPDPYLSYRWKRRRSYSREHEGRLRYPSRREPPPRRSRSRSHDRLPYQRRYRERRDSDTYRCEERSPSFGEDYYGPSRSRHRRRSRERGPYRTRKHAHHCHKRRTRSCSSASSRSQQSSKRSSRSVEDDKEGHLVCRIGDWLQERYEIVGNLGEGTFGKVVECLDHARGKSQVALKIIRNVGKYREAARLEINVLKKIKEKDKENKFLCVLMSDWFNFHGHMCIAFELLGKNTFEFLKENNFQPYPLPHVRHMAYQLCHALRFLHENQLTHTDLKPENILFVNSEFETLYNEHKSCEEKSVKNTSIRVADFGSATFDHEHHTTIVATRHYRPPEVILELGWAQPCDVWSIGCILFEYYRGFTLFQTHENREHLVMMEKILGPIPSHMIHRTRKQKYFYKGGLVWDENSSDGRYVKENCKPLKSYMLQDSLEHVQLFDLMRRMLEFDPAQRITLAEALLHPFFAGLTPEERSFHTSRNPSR
Protocol: CLK3 kinase activity was measured using the LANCE® Ultra technology (PerkinElmer) essentially as recommended by the supplier. Briefly, 2.5 μL of test sample at 4× the desired final concentration in 4% DMSO were dispensed into white, low volume, round bottom, 384 well plates (Corning, cat. no. 4512). 5 μL of a mixture containing recombinant human CLK3 (Thermo Fisher Scientific, cat. no. PV3826) and the labeled peptide substrate ULight™-CREBtide (PerkinElmer, cat. no. TRF0107) prepared in 1.33× kinase buffer (Thermo Fisher Scientific, cat. no. PV3189) were then added. Finally, the reactions were started by adding 2.5 μL of a 4× solution of ATP in kinase buffer. The plates were sealed with adhesive foils and incubated for 3 hours at 30° C. in the dark. The final concentrations of CLK3, ULight™-CREBtide, and ATP were 0.5 nM, 50 nM, and 300 μM, respectively. 5 μL of 40 mM EDTA were then added to terminate the reactions. The Eu-anti-phospho-CREB antibody (PerkinElmer, cat. no. TRF0200) diluted in LANCE® detection buffer (PerkinElmer, cat. no. CR97) was then added to a final concentration of 2 nM and the reactions were incubated for 1 hour at room temperature in the dark. The signals were measured using a Synergy 4 reader (BioTek) with a 320/80 nm filter for the excitation and 620/10 nm and 665/8 nm filters for the donor and acceptor emission, respectively. Relative inhibition values were calculated by normalizing the raw data using solvent control wells (0% inhibition) and wells that received no ATP (100% inhibition). IC50 values were calculated by fitting the concentration-response data to a sigmoidal 4-parameter logistic model. IC50 values for CLK3 are determined from duplicate measurements at ten different concentrations (serial 1:3 dilutions).

GI50 (MDA-MB-231 cells) [nM]	IC50 (recombinant human CLK3) [nM]	Structure (SMILES)	GI50 (CAL-51 cells) [nM]
< 100	< 30	COCCN[C@H]1CC[C@H](Oc2ccc3c(c2N(C)CCC#N)CC(C)(C)c2c(N)ncnc2-3)CC1 [Example 53, 3-[[4-amino-8-[trans-4-(2-methoxyethylamino)cyclohexoxy]-5,5-dimethyl-6H-benzo[h]quinazolin-7-yl]-methyl-amino]propanenitrile]	< 100
< 100	< 30	C#CCCN(C)c1c(O[C@H]2CC[C@H](N)CC2)ccc2c1CC(C)(C)c1c(N)ncnc1-2 [Example 54, 8-(trans-4-aminocyclohexoxy)-N7-but-3-ynyl-N7,5,5-trimethyl-6H-benzo[h]quinazoline-4,7-diamine]	< 100
< 100	30 to 100	COc1ccc2c(c1N1CCC(C#N)C1)CC(C)(C)c1c(N)ncnc1-2 (stereo not drawn) [Example 55, 1-(4-amino-8-methoxy-5,5-dimethyl-6H-benzo[h]quinazolin-7-yl)pyrrolidine-3-carbonitrile]	< 100
> 2000	101 to 1000	CC1(C)Cc2c(ccc(O[C@H]3CC[C@H](N)CC3)c2N2CC=CC2=O)-c2ncnc(N)c21 [Example 56, 1-[4-amino-8-(trans-4-aminocyclohexoxy)-5,5-dimethyl-6H-benzo[h]quinazolin-7-yl]-2H-pyrrol-5-one]	> 2000
100 to 2000	30 to 100	COc1ccn(-c2c(O[C@H]3CC[C@H](N)CC3)ccc3c2CC(C)(C)c2c(N)ncnc2-3)c1 [Example 57, 8-(trans-4-aminocyclohexoxy)-7-(3-methoxypyrrol-1-yl)-5,5-dimethyl-6H-benzo[h]quinazolin-4-amine]	< 100
100 to 2000	< 30	CN(CCCC#N)c1c(O[C@H]2CC[C@H](N)CC2)ccc2c1CC(C)(C)c1c(N)ncnc1-2 [Example 58, 4-[[4-amino-8-(4-trans-aminocyclohexoxy)-5,5-dimethyl-6H-benzo[h]quinazolin-7-yl]-methyl-amino]butanenitrile]	< 100
100 to 2000	< 30	CN(CCO)c1c(O[C@H]2CC[C@H](N)CC2)ccc2c1CC1(CCCC1)c1c(N)ncnc1-2 [Example 59, 2-[[4-amino-8-(4-trans-aminocyclohexoxy)spiro[6H-benzo[h]quinazoline-5,1′-cyclopentane]-7-yl]-methyl-amino]ethanol]	< 100
100 to 2000	30 to 100	Nc1ncnc2c1C1(CCCC1)Cc1c-2ccc(O[C@H]2CC[C@H](N)CC2)c1NCCO [Example 60, 2-[[4-amino-8-(4-trans-aminocyclohexoxy)spiro[6H-benzo[h]quinazoline-5,1′-cyclopentane]-7-yl]amino]ethanol]	100 to 2000
100 to 2000	101 to 1000	COCCCc1c(OC)ccc2c1CC(C)(C)c1c(N)ncnc1-2 [Example 61, 8-methoxy-7-(3-methoxypropyl)-5,5-dimethyl-6H-benzo[h]quinazolin-4-amine]	100 to 2000
100 to 2000	101 to 1000	COCCNc1c(O[C@H]2CC[C@H](N)CC2)ccc2c1CC1(CCCC1)c1c(N)ncnc1-2 [Example 62, 8-(trans-4-aminocyclohexoxy)-N7-(2-methoxyethyl)spiro[6H-benzo[h]quinazoline-5,1′-cyclopentane]-4,7-diamine]	100 to 2000
< 100	< 30	COCCS(=O)(=O)N(C)c1c(O[C@H]2CC[C@H](N)CC2)ccc2c1CC(C)(C)c1c(N)ncnc1-2 [Example 64, N-[4-amino-8-(trans-4-aminocyclohexoxy)-5,5-dimethyl-6H-benzo[h]quinazolin-7-yl]-2-methoxy-N-methyl-ethanesulfonamide]	< 100
100 to 2000	30 to 100	CCOC(=O)CNc1c(O[C@H]2CC[C@@H](N)CC2)ccc2c1CC1(CCCC1)c1c(N)ncnc1-2 [Example 65, ethyl 2-[[4-amino-8-(cis-4-aminocyclohexoxy)spiro[6H-benzo[h]quinazoline-5,1′-cyclopentane]-7-yl]amino]acetate]	100 to 2000
< 100	< 30	CC1(C)Cc2c(ccc(O[C@H]3CC[C@H](N)CC3)c2N2CCC(C#N)C2)-c2ncnc(N)c21 (stereo partly drawn) [Example 66, 1-[4-amino-8-(trans-4-aminocyclohexoxy)-5,5-dimethyl-6H-benzo[h]quinazolin-7-yl]pyrrolidine-3-carbonitrile]	< 100
< 100	< 30	CCN(C)c1c(O[C@H]2CC[C@H](N)CC2)ccc2c1CC(C)(C)c1c(N)ncnc1-2 [Example 67, 8-(trans-4-aminocyclohexoxy)-N7-ethyl-N7,5,5-trimethyl-6H-benzo[h]quinazoline-4,7-diamine]	< 100
100 to 2000	30 to 100	CNc1c(O[C@H]2CC[C@H](N)CC2)ccc2c1CC(C)(C)c1c(N)ncnc1-2 [Example 68, 8-(trans-4-aminocyclohexoxy)-N7,5,5-trimethyl-6H-benzo[h]quinazoline-4,7-diamine]	< 100
> 2000	< 30	CN(c1c(O[C@H]2CC[C@H](N)CC2)ccc2c1CC(C)(C)c1c(N)ncnc1-2)S(=O)(=O)CCC(=O)O [Example 69, 3-[[4-amino-8-(trans-4-aminocyclohexoxy)-5,5-dimethyl-6H-benzo[h]quinazolin-7-yl]-methyl-sulfamoyl]propanoic acid]	> 2000
100 to 2000	< 30	Nc1ncnc2c1C1(CCCC1)Cc1c-2ccc(O[C@H]2CC[C@@H](N)CC2)c1NCCO [Example 70, 2-[[4-amino-8-(cis-4-aminocyclohexoxy)spiro[6H-benzo[h]quinazoline-5,1′-cyclopentane]-7-yl]amino]ethanol]	100 to 2000
100 to 2000	< 30	CC1(C)Cc2c(ccc(O[C@H]3CC[C@H](N)CC3)c2OCCC#N)-c2ncnc(N)c21 [Example 71, 3-[[4-amino-8-(trans-4-aminocyclohexoxy)-5,5-dimethyl-6H-benzo[h]quinazolin-7-yl]oxy]propanenitrile]	< 100
100 to 2000	101 to 1000	COCCN(C)c1c(O[C@H]2CC[C@H](N)CC2)ccc2c1CC1(CCCC1)c1c(N)ncnc1-2 [Example 72, 8-(trans-4-aminocyclohexoxy)-N7-(2-methoxyethyl)-N7-methyl-spiro[6H-benzo[h]quinazoline-5,1′-cyclopentane]-4,7-diamine]	100 to 2000
100 to 2000	< 30	CN(c1c(O[C@H]2CC[C@H](N)CC2)ccc2c1CC(C)(C)c1c(N)ncnc1-2)S(=O)(=O)CCC#N [Example 74, N-[4-amino-8-(trans-4-aminocyclohexoxy)-5,5-dimethyl-6H-benzo[h]quinazolin-7-yl]-2-cyano-N-methyl-ethanesulfonamide]	< 100
100 to 2000	< 30	COCCN(C)c1c(O[C@H]2CC[C@@H](N)CC2)ccc2c1CC1(CCCC1)c1c(N)ncnc1-2 [Example 75, 8-(cis-4-aminocyclohexoxy)-N7-(2-methoxyethyl)-N7-methyl-spiro[6H-benzo[h]quinazoline-5,1′-cyclopentane]-4,7-diamine]	< 100
